B1: mutant VDR: polypeptide derived from human VDR in which residues 1–117 and 165–215 are suppressed (protein)
chain: DSLRPKLSEEQQRIIAILLDAHHKTYDPTYSDFCQFRPPVRVNDGGGSVTLELSQLSMLPHLADLVSYSIQKVIGFAKMIPGFRDLTSEDQIVLLKSSAIEVIMLRSNESFTMDDMSWTCGNQDYKYRVSDVTKAGHSLELIEPLIKFQVGLKKLNLHEEEHVLLMAICIVSPDRPGVQDAALIEAIQDRLSNTLQTYIRCRHPPPGSHLLYAKMIQKLADLRSLNEEHSKQYRCLSFQPECSMKLTPLVLEVFGNEIS
modifications: Description of the artificial sequence polypeptide derived from the nuclear receptor of the human vitamin D
notes: polypeptide derived from human VDR in which residues 1–117 and 165–215 are suppressed

Tests used:
VDR = molecular target: T1, VDR (Bos taurus, UniProt Q28037); conditions: versus 1,25(OH)2 D3; cited from earlier work
T1 sequence (Q28037 1-426): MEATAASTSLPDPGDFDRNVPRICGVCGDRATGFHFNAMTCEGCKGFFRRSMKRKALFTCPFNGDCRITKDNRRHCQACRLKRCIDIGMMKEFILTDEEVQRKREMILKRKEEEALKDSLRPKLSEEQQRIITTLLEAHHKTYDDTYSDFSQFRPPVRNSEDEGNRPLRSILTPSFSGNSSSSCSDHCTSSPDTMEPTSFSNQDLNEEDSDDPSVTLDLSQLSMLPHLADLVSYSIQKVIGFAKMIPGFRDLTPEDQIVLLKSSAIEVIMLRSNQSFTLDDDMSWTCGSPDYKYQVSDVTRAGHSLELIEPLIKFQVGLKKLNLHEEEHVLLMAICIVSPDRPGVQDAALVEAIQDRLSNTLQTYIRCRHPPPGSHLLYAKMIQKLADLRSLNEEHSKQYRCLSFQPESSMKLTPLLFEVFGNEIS

[1] = tested on: 17 m5-TATA-CAT reporter gene responding to GAL4; experiment: GAL4-LBD chimera transactivation, CAT reporter in transfected Cos cells; format: cell-based; conditions: Gal4 (1–147) fusion, Cos cells, 1,25(OH)2 D3 10^−7M
Text: b) CAT activities of the wild-type hVDR and of the mutant hVDR; these activities are indicated on the ordinate as a percentage; column 1 corresponds to the CAT activity measured in the absence of vitamin D (VD), of wild-type (wild-type) hVDR and of mutant (truncated) hVDR; column 2 corresponds to CAT activity measured in the presence of VD and in the absence of wild-type hVDR and of mutant hVDR; column 3 corresponds to CAT activity measured in the presence of wild-type hVDR and in the absence of VD and of mutant hVDR; column 4 corresponds to CAT activity measured in the presence of VD and of wild-type hVDR and in the absence of mutant hVDR; column 5 corresponds to CAT activity measured in the presence of mutant hVDR, and in the absence of VD and of wild-type hVDR; column 6 corresponds to CAT activity measured in the presence of mutant hVDR and of VD and in the absence of wild-type hVDR.
No significant change was observed between the dissociation constants of the wild-type and mutant VDRs was observed, the values being similar to that described previously for the whole receptor (Bouillon et al., 1995). […] The chimeric proteins were expressed by transfection into Cos cells, and the transactivation was measured with an appropriate reporter responding to GAL4.

Molecule | binding affinity relative to the natural ligand (VDR) [times] | transactivation properties (CAT activity) compared with wild-type LBD [1]
C=C1C(=CC=C2CCCC3(C)C2CCC3C(C)CCCC(C)(C)O)CC(O)C(C)C1O (stereo not drawn) [2 α-methyl 1,25(OH)2 D3] | 4 | –
B1 | – | comparable transactivation properties
